Toxic doses and inconclusive results are not listed. Cut-off read from the data, not from the text of the source: active = T/C of 150% or more; inactive = T/C below 125%.
Test system: L1210 leukemia ip in BDF1 mice, survival T/C
Assay: NCI In Vivo Anticancer Drug Screen. Data for tumor model L1210 Leukemia (intraperitoneal) in B6D2F1 (BDF1) mice
Details: endpoint: mean survival time, higher = longer survival
Procedure, shortened: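 Survival endpoint. Drug-treated group vs vehicle group, expressed as T divided by C. Tumor passaged by transplantation.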

[1] = dose: 100.0 mg/kg/injection, schedule: Q04DX003 (ip), vehicle: saline with Tween-80
[2] = dose: 200.0 mg/kg/injection, schedule: Q04DX003 (ip), vehicle: saline with Tween-80
[3] = dose: 400.0 mg/kg/injection, schedule: Q04DX003 (ip), vehicle: saline with Tween-80
[4] = dose: 100.0 mg/kg/injection, schedule: Q01DX009 (ip), vehicle: Klucel (hydroxypropylcellulose) (HPC)
[5] = dose: 200.0 mg/kg/injection, schedule: Q01DX009 (ip), vehicle: Klucel (hydroxypropylcellulose) (HPC)
[6] = dose: 400.0 mg/kg/injection, schedule: Q01DX009 (ip), vehicle: Klucel (hydroxypropylcellulose) (HPC)
[7] = dose: 100.0 mg/kg/injection, schedule: Q04DX003 (ip), vehicle: Klucel (hydroxypropylcellulose) (HPC)
[8] = dose: 200.0 mg/kg/injection, schedule: Q04DX003 (ip), vehicle: Klucel (hydroxypropylcellulose) (HPC)
[9] = dose: 400.0 mg/kg/injection, schedule: Q04DX003 (ip), vehicle: Klucel (hydroxypropylcellulose) (HPC)
[10] = dose: 100.0 mg/kg/injection, schedule: Q01DX001 (ip), vehicle: carboxymethylcellulose (CMC)
[11] = dose: 200.0 mg/kg/injection, schedule: Q01DX001 (ip), vehicle: carboxymethylcellulose (CMC)
[12] = dose: 400.0 mg/kg/injection, schedule: Q01DX001 (ip), vehicle: carboxymethylcellulose (CMC)
[13] = dose: 100.0 mg/kg/injection, schedule: Q04DX002 (ip), vehicle: Klucel (hydroxypropylcellulose) (HPC)
[14] = dose: 200.0 mg/kg/injection, schedule: Q04DX002 (ip), vehicle: Klucel (hydroxypropylcellulose) (HPC)
[15] = dose: 400.0 mg/kg/injection, schedule: Q04DX002 (ip), vehicle: Klucel (hydroxypropylcellulose) (HPC)
[16] = dose: 100.0 mg/kg/injection, schedule: Q01DX001 (ip), vehicle: saline
[17] = dose: 200.0 mg/kg/injection, schedule: Q01DX001 (ip), vehicle: saline
[18] = dose: 400.0 mg/kg/injection, schedule: Q01DX001 (ip), vehicle: saline

Measured: T/C

N#Cc1ccc(Oc2ccc(C#N)cc2)cc1
inactive: [1] 100 % of control | [2] 97 % of control | [3] 101 % of control

CCCCCCCCCCCCOCN1C(=O)N(COCCCCCCCCCCCC)C(=O)C(CC)(c2ccccc2)C1=O
inactive: dose: 100.0 mg/kg/injection, schedule: Q01DX009 (ip), vehicle: saline with Tween-80 97 % of control | dose: 200.0 mg/kg/injection, schedule: Q01DX009 (ip), vehicle: saline with Tween-80 94 % of control | dose: 400.0 mg/kg/injection, schedule: Q01DX009 (ip), vehicle: saline with Tween-80 94 % of control

CCCCNC(=O)Nc1cccc2ccccc12
inactive: [4] 96 % of control | [5] 96 % of control | [6] 97 % of control

O=P(c1ccccc1)(N1CCOCC1)N1CCOCC1
inactive: dose: 75.0 mg/kg/injection, schedule: Q04DX003 (ip), vehicle: saline 94 % of control | dose: 150.0 mg/kg/injection, schedule: Q04DX003 (ip), vehicle: saline 104 % of control | dose: 300.0 mg/kg/injection, schedule: Q04DX003 (ip), vehicle: saline 110 % of control

C(=N\N=C\c1cccs1)/c1cccs1
inactive: [1] 98 % of control | [2] 98 % of control | [3] 95 % of control

O=P(NC12CC3CC(CC(C3)C1)C2)(Oc1ccccc1)Oc1ccccc1
inactive: [7] 101 % of control | [8] 97 % of control | [9] 87 % of control

CN(C)C(=O)c1ccccc1Cl
inactive: dose: 100.0 mg/kg/injection, schedule: Q04DX003 (ip), vehicle: acetone 92 % of control | dose: 200.0 mg/kg/injection, schedule: Q04DX003 (ip), vehicle: acetone 94 % of control | dose: 400.0 mg/kg/injection, schedule: Q04DX003 (ip), vehicle: acetone 105 % of control

OC1OCC(OCc2ccccc2)C(OCc2ccccc2)C1OCc1ccccc1 (configuration not stated)
inactive: [10] 101 % of control | [11] 101 % of control | [12] 95 % of control

Cc1cc([N+](=O)[O-])c(C)cc1NC(=O)c1ccccc1
inactive: [10] 91 % of control | [11] 92 % of control | [12] 94 % of control

O=C1OCC/C1=C\OCCCO/C=C1\CCOC1=O
inactive: [13] 100 % of control | [14] 87 % of control | [15] 97 % of control

Fc1cccc2ccc(Br)cc12
inactive: [7] 100 % of control | [8] 100 % of control | [9] 106 % of control

O=[N+]([O-])c1cc([N+](=O)[O-])c(Cl)s1
inactive: dose: 12.5 mg/kg/injection, schedule: Q01DX009 (ip), vehicle: saline with Tween-80 97 % of control | dose: 25.0 mg/kg/injection, schedule: Q01DX009 (ip), vehicle: saline with Tween-80 91 % of control

COc1ccc(C=Nc2cc(Cl)ccc2O)cc1
inactive: [10] 89 % of control | [11] 95 % of control | [12] 95 % of control

CC(C)C1=CC23CCC4C(C)(C(=O)Cl)CCCC4(C)C2CC1C1(Cl)C(=O)OC(=O)C31Cl (configuration not stated)
inactive: dose: 75.0 mg/kg/injection, schedule: Q01DX001 (ip), vehicle: other 94 % of control | dose: 150.0 mg/kg/injection, schedule: Q01DX001 (ip), vehicle: other 93 % of control | dose: 300.0 mg/kg/injection, schedule: Q01DX001 (ip), vehicle: other 89 % of control

CCOC(=O)C(C(=O)OCC)C(=O)OCC
inactive: [16] 102 % of control | [17] 102 % of control | [18] 105 % of control

CCOP(=O)(/C(=C\c1ccccc1)C(=O)c1ccccc1)c1ccccc1 (configuration not stated)
inactive: [4] 96 % of control | [7] 95 % of control | [5] 95 % of control | [8] 98 % of control | dose: 300.0 mg/kg/injection, schedule: Q01DX009 (ip), vehicle: Klucel (hydroxypropylcellulose) (HPC) 90 % of control | [9] 98 % of control

CN1CCN(C(=O)C(c2ccccc2)C2(O)CCCC2)CC1 (configuration not stated)
inactive: dose: 5.0 mg/kg/injection, schedule: Q01DX001 (ip), vehicle: saline 96 % of control | dose: 10.0 mg/kg/injection, schedule: Q01DX001 (ip), vehicle: saline 105 % of control

CC(=O)CCCCC(C)=O
inactive: [16] 98 % of control | [17] 101 % of control | [18] 104 % of control

O=C(Nc1ccc(Nc2ccccc2)cc1)Nc1cc(C(F)(F)F)ccc1Cl
inactive: [4] 103 % of control | [5] 93 % of control | [6] 87 % of control

CC(O)C[P+](c1ccccc1)(c1ccccc1)c1ccccc1 (configuration not stated)
inactive: [16] 110 % of control | [17] 96 % of control

COc1ccc(-n2c(=O)c(N=Nc3ccc(Cl)cc3)c(O)n(-c3ccc(Br)cc3)c2=S)cc1
inactive: dose: 100.0 mg/kg/injection, schedule: Q01DX001 (ip), vehicle: Klucel (hydroxypropylcellulose) (HPC) 94 % of control | dose: 200.0 mg/kg/injection, schedule: Q01DX001 (ip), vehicle: Klucel (hydroxypropylcellulose) (HPC) 94 % of control | dose: 400.0 mg/kg/injection, schedule: Q01DX001 (ip), vehicle: Klucel (hydroxypropylcellulose) (HPC) 92 % of control

Nc1[nH]c(=O)[nH]c(=O)c1Br
inactive: [4] 97 % of control | [7] 100 % of control | [5] 103 % of control | [8] 100 % of control | [6] 101 % of control | [9] 97 % of control

CC1=CC(C)(C)Nc2ccc(Nc3ccccc3)cc21
inactive: dose: 75.0 mg/kg/injection, schedule: Q01DX001 (ip), vehicle: saline 101 % of control | dose: 150.0 mg/kg/injection, schedule: Q01DX001 (ip), vehicle: saline 96 % of control

O=C1CCCC(=O)c2ccccc21
inactive: [10] 98 % of control | [11] 93 % of control | [12] 102 % of control

O=[N+]([O-])c1cccc(C=Nc2cccc(Cl)c2)c1
inactive: [13] 96 % of control | [14] 100 % of control | [15] 100 % of control

O=C1c2cc(-c3ccccc3)ccc2C(c2ccccc2)C1NC1CCCCC1 (configuration not stated)
inactive: dose: 37.5 mg/kg/injection, schedule: Q01DX001 (ip), vehicle: Klucel (hydroxypropylcellulose) (HPC) 89 % of control | dose: 75.0 mg/kg/injection, schedule: Q01DX001 (ip), vehicle: Klucel (hydroxypropylcellulose) (HPC) 89 % of control | dose: 150.0 mg/kg/injection, schedule: Q01DX001 (ip), vehicle: Klucel (hydroxypropylcellulose) (HPC) 89 % of control

CCN=C(NCC)c1ccc(NC(=O)Nc2ccc(NC(=O)Nc3ccc(C(=NCC)NCC)cc3)cc2)cc1
inactive: dose: 0.87 mg/kg/injection, schedule: Q01DX Z (ip), vehicle: water 100 % of control | dose: 1.75 mg/kg/injection, schedule: Q01DX Z (ip), vehicle: water 100 % of control | dose: 3.5 mg/kg/injection, schedule: Q01DX Z (ip), vehicle: water 97 % of control | dose: 7.0 mg/kg/injection, schedule: Q01DX Z (ip), vehicle: water 103 % of control

CCCCCCCCCCCCCCCCCC(=O)Oc1ccc(OCc2ccccc2)cc1
inactive: [4] 105 % of control | [5] 95 % of control | [6] 97 % of control

From PubChem BioAssay AID248 (DTP/NCI, 2004)
